Entries after “also recorded” stand apart in the source; their conditions may differ.
Assays:
[1] = design: method as in PMID 39000101, PMID 39125028; conditions: previously analyzed derivatives; cited from earlier work
[2] = design: method as in PMID 39000101, PMID 39125028; conditions: previously analyzed derivatives; cited from earlier work; remark: listed apart in the source
SKBR-3 = test: MTT assay, SKBR-3; assay type: cell-based, human; conditions: for IC50: SK-BR-3, MTT assay, SKBR-3 human breast adenocarcinoma, value (SD); for SKBR-3 SI: Selectivity Index = IC50 HDF / IC50 SKBR-3
Experimental: (§1) The cytotoxic activity of oleanolic acid (mother compound, 1, Figure 2) and its 14 derivatives (3a–3n, Figure 2) was tested in vitro using the standard MTT method based on viability assay, e.g., [44] against carcinoma cell lines: SKBR-3, SKOV-3, PC-3, U-87, and one normal cell line: HDF.
(§2) Human cancer cells: SKBR-3 and SKOV-3 were cultured in McCoy’s Modified Medium; PC-3 was cultured in an F-12K medium; U-87 was cultured in EMEM medium; HDF was cultured in Fibroblast Basal Medium. Each medium was supplemented with 10% fetal bovine serum, 1% L- glutamine, and 1% penicillin/streptomycin solution. The cell lines were kept in an incubator at 37 °C. All the cell lines and mediums were obtained from the American Type Culture Collection (ATCC) supplied by LGC-Standards (Lomianki, Poland).
(§3) The MTT assay was conducted as described earlier, e.g., [44]. In short, this method is based on the reaction between mitochondria enzymes (dehydrogenases) of tested cell lines and 3-(4,5-dimethylthiazol-2-yl)-2,5-diphenyltetrazolium bromide (MTT). The final product of this reaction gives violet formazan crystals. The number of live cells is proportional to the amount of formazan and is represented by the violet dye reagent. The details of the experiments are given in [44].

PC-3 = test: MTT assay, PC-3; assay type: cell-based, human; conditions: for IC50: MTT assay, PC-3 human prostate carcinoma, value (SD), read-out: B IC50 (SD); for B SI: Selectivity Index = IC50 HDF / IC50 of PC-3
Experimental: as §1, §2, §3

U-87 = test: MTT assay, U-87; assay type: cell-based, human; conditions: for IC50: U-87 MG, MTT assay, U-87 human glioblastoma, value (SD); for U-87 SI: Selectivity Index = IC50 HDF / IC50 U-87
Experimental: as §1, §2, §3

HDF = test: MTT assay, HDF normal cell line; assay type: cell-based; conditions: Homo sapiens, value (SD)
Experimental: as §1, §2, §3

[3] = test system: SKBR-3, SKOV-3, PC-3, and U-87 cancer cell lines; test: MTT assay, four cancer cell lines taken together; assay type: cell-based, human; conditions: MTT, across SKBR-3, SKOV-3, PC-3, U-87
Experimental: as §1, §2, §3

CUPRAC antioxidant assay = conditions: Figure 3
Description: (§4) The results of the antioxidant activity of oleanolic acid (1) and Acetylated Oleanolic Acid Dimers (AcOADs) 3a–3n evaluated with CUPRAC and DPPH assays are given in Figure 3. The results are presented as % inhibition of the copper(II) ions and Trolox equivalent (blue bars) calculated from the standard curve, presented in the Supplementary Materials (Supplementary Materials S02, Figure S1) and as % inhibition of the DPPH radical and Trolox equivalent (pink bars), calculated from the standard curve presented in the Supplementary Materials (Supplementary Materials S02, Figure S2).
(§5) The CUPRAC reagent (7.5 mM ethanolic 96% neocuproine solution, 10 mM CuCl2 × H2O solution, and an ammonium acetate buffer of pH 7.0) and DPPH reagent (2,2-diphenyl-1-picrylhydrazyl 0.2 mM solution) were applied.
(§6) The DPPH assay relies on the ability of an antioxidant to donate a hydrogen atom or an electron to the stable DPPH radical, resulting in its reduction and subsequent color change. In contrast, the CUPRAC method measures the reducing power of a sample by quantifying its ability to convert the Cu-neocuproine reagent complex into the Cu(I) form. The results are presented as % inhibition of the copper(II) ions and Trolox equivalent (blue bars) calculated from the standard curve (Supplementary Materails S02, Figure S1) and as % inhibition of the DPPH radical and Trolox equivalent (pink bars), calculated from the standard curve (Supplementary Materials S02, Figure S2). The details of the experiments are given in [46].

DPPH antioxidant assay = conditions: Figure 3
Description: as §4, §5, §6

SKOV-3 = test: MTT assay, SKOV-3; assay type: cell-based, human; conditions: for IC50: SK-OV-3, MTT assay, SKOV-3 human ovarian cystadenocarcinoma, value (SD); for SKOV-3 SI: Selectivity Index = IC50 HDF / IC50 SKOV-3
Experimental: as §1, §2, §3

[4] = Solubility in ethanol observed at crystallization; assay type: physicochemical; conditions: room temperature

IC50 (SKBR-3) [µM]	IC50 (PC-3) [µM]	IC50 (U-87) [µM]	IC50 ([3]; Homo sapiens) [µM]	IC50 (SKOV-3) [µM]	Compound	CUPRAC activity (in words), previous analysis [1]	IC50 (HDF) [µM]	CUPRAC activity (in words) (CUPRAC antioxidant assay)	SKBR-3 SI (SKBR-3)	SKOV-3 SI (SKOV-3)	B SI (PC-3)	U-87 SI (U-87)	other results
					CC1(C)CCC2(C(=O)OCOC(=O)C34CCC(C)(C)CC3C3=CCC5C6(C)CCC(O)C(C)(C)C6CCC5(C)C3(C)CC4)CCC3(C)C(=CCC4C5(C)CCC(O)C(C)(C)C5CCC43C)C2C1 (stereo not shown) [Compound 2a]	lower CUPRAC activity							DPPH activity (in words), previous analysis [2]: high DPPH activity
					CC1(C)CCC2(C(=O)OCCCCCOC(=O)C34CCC(C)(C)CC3C3=CCC5C6(C)CCC(O)C(C)(C)C6CCC5(C)C3(C)CC4)CCC3(C)C(=CCC4C5(C)CCC(O)C(C)(C)C5CCC43C)C2C1 (stereo not shown) [Compound 2g]	high CUPRAC values							
					CC1(C)CCC2(C(=O)OCCCCCCCOC(=O)C34CCC(C)(C)CC3C3=CCC5C6(C)CCC(O)C(C)(C)C6CCC5(C)C3(C)CC4)CCC3(C)C(=CCC4C5(C)CCC(O)C(C)(C)C5CCC43C)C2C1 (stereo not shown) [Compound 2i]	high CUPRAC values							
					CC1(C)CCC2(C(=O)OCCCCCCCCOC(=O)C34CCC(C)(C)CC3C3=CCC5C6(C)CCC(O)C(C)(C)C6CCC5(C)C3(C)CC4)CCC3(C)C(=CCC4C5(C)CCC(O)C(C)(C)C5CCC43C)C2C1 (stereo not shown) [Compound 2j]	high CUPRAC values							
					CC1(C)CCC2(C(=O)OCCCCCCCCCCCOC(=O)C34CCC(C)(C)CC3C3=CCC5C6(C)CCC(O)C(C)(C)C6CCC5(C)C3(C)CC4)CCC3(C)C(=CCC4C5(C)CCC(O)C(C)(C)C5CCC43C)C2C1 (stereo not shown) [Compound 2m]	high CUPRAC values							
2.04	2.26	2.03	~2		CC(=O)OC1CCC2(C)C(CCC3(C)C2CC=C2C4CC(C)(C)CCC4(C(=O)OCOC(=O)C45CCC(C)(C)CC4C4=CCC6C7(C)CCC(OC(C)=O)C(C)(C)C7CCC6(C)C4(C)CC5)CCC23C)C1(C)C (stereo not shown) [Compound 3a]		6.63	moderate CUPRAC activity					DPPH activity (in words) (DPPH antioxidant assay): higher antioxidant activity than OA; also recorded: high DPPH activity; melting point: 286 to 288 °C
2.97	3.12	3.1	2.5 to 4.5	3.04	CC(=O)OC1CCC2(C)C(CCC3(C)C2CC=C2C4CC(C)(C)CCC4(C(=O)OCCOC(=O)C45CCC(C)(C)CC4C4=CCC6C7(C)CCC(OC(C)=O)C(C)(C)C7CCC6(C)C4(C)CC5)CCC23C)C1(C)C (stereo not shown) [Compound 3b]		7.05	highest CUPRAC activity; also recorded: high CUPRAC activity	2.37	2.32	2.26	2.27	DPPH activity (in words) (DPPH antioxidant assay): low DPPH activity
1.78	1.76	1.83	~2	2.31	CC(=O)OC1CCC2(C)C(CCC3(C)C2CC=C2C4CC(C)(C)CCC4(C(=O)OCCCCCCCCCCCOC(=O)C45CCC(C)(C)CC4C4=CCC6C7(C)CCC(OC(C)=O)C(C)(C)C7CCC6(C)C4(C)CC5)CCC23C)C1(C)C (stereo not shown) [Compound 3m]		4.62	highest CUPRAC activity	2.59	2.00	2.62	2.52	IC50 [3]: ≤ 2 µM; solubility in ethanol [4]: well soluble
9.69	9.49	10.2		10.2	CC(=O)OC1CCC2(C)C(CCC3(C)C2CC=C2C4CC(C)(C)CCC4(C(=O)OCCCCCCCCCCCCOC(=O)C45CCC(C)(C)CC4C4=CCC6C7(C)CCC(OC(C)=O)C(C)(C)C7CCC6(C)C4(C)CC5)CCC23C)C1(C)C (stereo not shown) [Compound 3n]		14.7		1.52	1.43	1.55	1.45	solubility in ethanol [4]: well soluble

Reference: article PMC11434080, “Acetylation of Oleanolic Acid Dimers as a Method of Synthesis of Powerful Cytotoxic Agents” (Molecules, 2024)
